Assay results published in patent US9249128B2 (priority 2010, dated 2016).
Read-outs that look alike come from different tables or passages of the source.

How the values were obtained:
[1] = target: T1, KIAA1363 (Homo sapiens, UniProt Q6PIU2); experiment: Gel-based competitive ABPP of living PC3 cells, in situ treatment; format: cell-based; set-up: PC3 cancer cells, which have high endogenous KIAA1363 levels; endogenous in cells; host or cells: PC3; settings: for IC50: in situ treatment
T1 sequence (Q6PIU2 1-408): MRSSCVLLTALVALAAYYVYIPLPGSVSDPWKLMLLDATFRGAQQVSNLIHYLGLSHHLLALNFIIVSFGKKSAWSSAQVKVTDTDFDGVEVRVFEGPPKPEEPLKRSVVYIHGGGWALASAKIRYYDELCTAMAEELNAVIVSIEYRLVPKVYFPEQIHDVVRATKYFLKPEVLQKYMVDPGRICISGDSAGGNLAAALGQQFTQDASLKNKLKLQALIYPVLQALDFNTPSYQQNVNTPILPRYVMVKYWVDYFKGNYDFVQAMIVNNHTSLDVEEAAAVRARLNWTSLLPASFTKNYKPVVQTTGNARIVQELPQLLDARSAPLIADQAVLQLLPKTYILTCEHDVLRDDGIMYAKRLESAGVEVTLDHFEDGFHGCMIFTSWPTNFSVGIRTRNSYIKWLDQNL
Experimental: Inhibitors were dissolved in DMSO and diluted into media or buffer prior to cell or proteome treatment, respectively. For in vitro treatment, final DMSO concentration was 4%. For in situ treatments of cells for ABPP, lipid measurements, migration, cell-survival, and invasion assays, 2×10^6 cells were seeded in 6 cm dishes (˜100% confluency) 24 h prior to inhibitor pre-treatment (in DMSO at 0.1% final concentration) in serum-free media (3 mL) for the designated time before harvesting cells for ABPP or lipid measurements or before the initiation of migration, cell-survival, and invasion assays.
(§1) For ABPP experiments, cell lysate and tissue proteomes were treated with 1 μM FP-rhodamine for 30 min at room temperature (50 μL total reaction volume) as described previously (Nomura et al., 2010). Reactions were quenched with one volume of standard 4×SDS/PAGE loading buffer (reducing), separated by SDS/PAGE (10% acrylamide), and visualized in-gel with a Hitachi FMBio IIe flatbed fluorescence scanner (MiraiBio). Inhibitors were preincubated prior (30 min or 4 h at 37° C. in vitro or in situ, respectively) to the addition of FP-rhodamine.
JW576 was dissolved in DMSO and diluted into media or buffer prior to cell or proteome treatment, respectively. For in vitro treatment, final DMSO concentration was 4%. For in situ treatments of cells for ABPP, 2×10^6 cells were seeded in 6 cm dishes (100% confluency) 24 hr prior to JW576 pretreatment with or without JW480 (in DMSO at 0.1% final concentration) in serum-free media (3 ml) for the designated time before harvesting cells for ABPP.
For ABPP experiments, cell lysate and tissue proteomes were treated with 1 μM FP-rhodamine for 30 min at room temperature ([…]). Reactions were quenched with one volume of standard 4×SDS/PAGE loading buffer (reducing), separated by SDS/PAGE (10% acrylamide), and visualized in-gel with a Hitachi FMBio IIe flatbed fluorescence scanner (MiraiBio). For experiments involving a preincubation with JW576 in the presence or absence of the non-fluorescent competitor JW480, the reactions were prepared without FP-rhodamine. JW576 were added at the indicated concentration and incubated for the indicated time at 37° C. FP-rhodamine was then added and the reaction was carried out exactly as described above.

[2] = target: T1, KIAA1363; experiment: Competitive ABPP of tumors explanted from treated mice; format: in vivo, mouse; set-up: PC3 cancer cells, which have high endogenous KIAA1363 levels; endogenous in cells; host or cells: PC3 (2-acetyl MAGE assay also DU145 and SKOV3); settings: 80 mg/kg oral daily; tumors removed 4 hr after final dose (day 33)
Experimental: as §1
(§2) Human cancer xenografts were established by transplanting cancer cell lines ectopically into the flank of C.B17 SCID mice (Taconic Farms). Briefly, cells were washed two times with PBS, trypsinized, and harvested in serum-containing medium. Next, the harvested cells were washed two times with serum-free medium and resuspended at a concentration of 2.0×10^4 cells/μL and 100 μL was injected. Growth of the tumors was measured every 3 days with calipers. For chronic JW480 treatment studies, mice were treated with JW480 or vehicle once daily (at approximately the same time everyday) by oral gavage in PEG300 (4 μL/g mouse). The treatments were initiated immediately after ectopic injection of cancer cells.

[3] = system: PC3 tumor xenograft; experiment: PC3 tumor xenograft growth in SCID mice; format: in vivo, mouse; settings: 80 mg/kg, oral, daily, versus vehicle
Experimental: as §2

CC(C)c1ccccc1OC(=O)NCCc1ccc2ccccc2c1 [JW480, 2-isopropylphenyl (2-(naphthalen-2-yl)ethyl)carbamate]
Duration of in situ inhibition of KIAA1363 ([1]; JW480 1 μM, PC3 cells): at least 48 hr
IC50 ([1]; PC3 cells, read-out: IC50 for KIAA1363, in situ (FIG. 3B)): 6 nM
IC50 ([1]; presence or absence of 10% fetal calf serum, read-out: IC50 for KIAA1363 in living PC3 cells): 6 to 12 nM
KIAA1363 activity in explanted tumors [2]: completely ablated
PC3 tumor growth [3]: significantly impaired
